pIC50: −log10 of the molar value.
Test: Inhibition of tubulin polymerization assessed as turbidity by microtubule assembly assay

| pIC50 | SMILES |
| --- | --- |
| < 4.00 | COC(=O)[C@@H]1Cc2cn(c3ccccc23)[C@@H](NC(=O)[C@H](Cc2ccc(O)cc2)NC(=O)[C@@H]2CCCN2C(=O)[C@@H]2CCC(=O)N2)C(=O)N[C@@H](C(C)C)C(=O)N[C@@H](Cc2ccccc2)C(=O)N[C@@H](CO)C(=O)N1 [LYCIUMIN C] |
| < 4.00 | CC(C)[C@@H]1NC(=O)[C@H](NC(=O)[C@H](Cc2ccc(O)cc2)NC(=O)[C@@H]2CCCN2C(=O)[C@@H]2CCC(=O)N2)n2cc(c3ccccc32)C[C@@H](C(=O)N[C@@H](CCCCN)C(=O)O)NC(=O)[C@H](CO)NC(=O)[C@H](Cc2ccccc2)NC1=O [CELOGENAMIDE A] |
| < 4.00 | COC(=O)[C@@H]1Cc2cn(c3ccccc23)[C@@H](NC(=O)[C@H](Cc2ccc(O)cc2)NC(=O)[C@@H]2CCCN2C(=O)[C@@H]2CCC(=O)N2)C(=O)N[C@@H](C(C)C)C(=O)NCC(=O)N[C@@H](CO)C(=O)N1 [LYCLUMIN A] |
